In article PMC10224329, “Design, Synthesis, and Antiproliferative Activity of Benzopyran-4-One-Isoxazole Hybrid Compounds” (Molecules, 2023):

Experiments:
[1] = system: human embryonic kidney (HEK-293) cell lines; test: MTS cell viability assay, non-cancerous cells; format: cell-based; details: HEK293, Dox at 5 μM, 72 h
[2] = system: normal pig kidney (LLCPK) cell lines; test: MTS cell viability assay, non-cancerous cells; format: cell-based; details: Sus scrofa, 72 h
Description: (§1) The compounds were further screened for their in vitro cytotoxicity against non-cancerous normal cell lines, viz., human embryonic kidney (HEK-293) and normal pig kidney (LLCPK) cell lines. These cell lines were selected to determine whether the compounds had selectivity against cancerous cells in contrast to non-cancerous cells. The data obtained is shown in Figure 3a–b (cf. Supplementary Materials for the data obtained for intermediates and starting materials Figure S28.7–S28.8, page no. 77–78).
(§2) Cell viability assays were performed using the MTS protocol. The in vitro cytotoxicity of the conjugates was evaluated using six human cancer cell lines, one human normal kidney cell line, and one mammalian normal kidney cell line, which included human leukemia carcinoma cell lines (CCRF-CEM), human ovarian adenocarcinoma cell lines (SKOV-3), human breast tumor cell lines (MDA-MB-231), human prostate cancer cell lines (PC-3), androgen-independent human prostate cancer cell lines (DU-145), human renal carcinoma (iSLK), human embryonic kidney cell lines (HEK-293), and normal mammalian kidney cell line (LLCPK) to determine the toxicity of the synthesized conjugates. CCRF-CEM cells were seeded at 50,000 cells in 0.1 mL per well in 96-well plates, and in the case of SKOV-3, MDA-MB-231, PC-3, DU-145, HEK-293, and LLCPK cell lines, the cells were seeded at 5000 cells in 0.1 mL per well in 96-well plates. The CCRF-CEM cells were seeded in RPMI-1640 media containing 2mM L-glutamine, 1.5 g/L sodium bicarbonate, supplemented with fetal bovine serum (FBS) 10% media, SKOV-3, MDA-MB-231, and LLCPK cells were seeded in MEME media with Earle’s salts and sodium bicarbonate, without L-glutamine, supplemented with fetal bovine serum (FBS) 10%, PC-3 cells were seeded in DMEM:F-12 containing 1:1 mixture with L-glutamine with HEPES, supplemented with fetal bovine serum (FBS) 10%, and DU-145 and HEK-293 cells were seeded in DMEM containing 4500 mg/L glucose, L-glutamine, and sodium bicarbonate, without sodium pyruvate, supplemented with FBS (10%), 24 h prior to the experiment. The compounds at a final concentration of 25 µM (higher concentration stock solution prepared in DMSO) were added to each well in triplicate and incubated for 24 and 72 h at 37 °C in a humidified atmosphere (95% air and 5% CO2). The cell viability was then determined by measuring the absorbance of the formazan product at 490 nm using a microplate reader using a SpectraMax M2 microplate spectrophotometer, Molecular Devices, San Jose, CA, USA. The percentage of cell survival was calculated as [(OD value of cells treated with the test mixture of compounds) − (OD value of culture medium)]/[(OD value of control cells) − (OD value of culture medium)] × 100%. IC50 values of compounds were calculated using non-linear regression analysis in GraphPad Prism (Boston, MA, USA).

[3] = system: human prostate cancer (PC-3) cell lines; test: MTS cell viability assay; format: cell-based; details: for IC50: PC3, average of three independent tests in triplicate; for inhibition at 25 µM: conjugates at 25 μM
Description: (§3) All the 14 hybrid compounds synthesized via Scheme 1, along with the intermediates and starting compounds, were tested in vitro for their cytotoxicity against a panel of 6 human cancer cell lines. This panel involved human leukemia carcinoma (CCRF-CEM), human ovarian adenocarcinoma (SKOV-3), human breast tumor (MDA-MB-231), human prostate cancer (PC-3), androgen-independent human prostate cancer (DU-145), and human renal carcinoma (iSLK) cell lines. The compounds were tested at a concentration of 25 μM for incubation periods of 24 and 72 h. Standard anticancer drug doxorubicin at a concentration of 5 μM and DMSO were used as controls in all the cell assays. The antiproliferative profile of benzopyran-4-one-isoxazole conjugates is shown in Figure 2 (cf. Supplementary Materials for the data obtained for intermediates and starting materials Figure S28.1–S28.6, page no. 71–76).
as §2

[4] = system: androgen-independent human prostate cancer (DU-145) cell lines; test: MTS cell viability assay; format: cell-based; details: for IC50: average of three independent tests in triplicate; for inhibition at 25 µM: conjugates at 25 μM
Description: as §3, §2

[5] = system: human renal carcinoma (iSLK) cell lines; test: MTS cell viability assay; format: cell-based; details: 72 h; for inhibition at 25 µM: Homo sapiens, conjugates at 25 μM, read-out: Inhibition of Cancer Cell Lines iSLK
Description: as §3, §2

[6] = system: human breast tumor (MDA-MB-231) cell lines; test: MTS cell viability assay; format: cell-based; details: for IC50: average of three independent tests in triplicate; for inhibition at 25 µM: conjugates at 25 μM
Description: as §3, §2

[7] = system: human ovarian adenocarcinoma (SKOV-3) cell lines; test: MTS cell viability assay; format: cell-based; details: 72 h, read-out: Inhibition of Cancer Cell Lines SKOV-3; for inhibition at 25 µM: SK-OV-3, conjugates at 25 μM
Description: as §3, §2

[8] = system: human leukemia carcinoma (CCRF-CEM) cell lines; test: MTS cell viability assay; format: cell-based; details: for inhibition at 25 µM: conjugates at 25 μM; for IC50: average of three independent tests in triplicate
Description: as §3, §2

MDA-MB-231 cells = test: Annexin V-FITC/PI apoptosis assay by flow cytometry; format: cell-based, human; details: MDA-MB-231, 5 μM, 72 h
Description: In accordance with the MTS assay, compound 5a had promising antiproliferative action. Therefore, we attempted to study the mechanism triggering cell death. […] MDA-MB-231 cells were treated with 5 μM of compound 5a and Dox (5 μM) as a positive control and incubated for 72 h, then double-stained carefully by membrane-linked protein Annexin-V fluorescein isothiocyanate (FITC) and propidium iodide (PI) for flow cytometry analysis. Normally, in the early stages of apoptosis, phosphatidylserine flips from the inner cell membrane to the surface of the cell membrane. […] PI is a nucleic acid dye that can only cross the membrane of advanced apoptosis and necrotic cells and redden the nucleus. Consequently, when the treated cells are double stained by the two fluorescent dyes, early and late apoptosis and necrotic cells can be clearly distinguished. […] These findings illustrated that compound 5a mainly leads to the early apoptosis of MDA-MB-231 cells.
The assay was detected using a commercially available kit (FITC Annexin V Apoptosis Detection Kit II, BD Biosciences, San Jose, CA, USA) per the manufacturer’s instructions. Briefly, MDA-MB-231 cells were seeded in 6-well plates at a concentration of 1 × 10^6 cells/well for 24 h; after that, cells were treated with 5a (5 µM) for 72 h. Dox (5 µM) was used as a positive control. After the treatment period, cells were washed with cold phosphate-buffered saline (PBS) twice. The cells were collected after trypsin treatment and centrifugated to get a pellet, and a binding buffer (1X) was used to resuspend the cells. Annexin V (5 μL) and propidium iodide (PI) (5 μL) were mixed with 100 μL of the suspended cells (1 × 10^6 cells/mL), followed by 15 min incubation at room temperature in the dark. The mixture was diluted by adding 400 μL of 1× binding buffer, and the cells were analyzed using flow cytometry, FACS Verse (BD Biosciences, USA). The experiment was repeated three times independently.

[9] = system: human embryonic kidney (HEK-293) cell lines; test: MTS cell viability assay, non-cancerous cells; format: cell-based; details: for IC50: average of three independent tests in triplicate; for inhibition at 25 µM: HEK293, conjugates at 25 μM, 72 h
Description: as §1, §2

[10] = system: panel of cancer cell lines (CCRF-CEM, SKOV-3, MDA-MB-231, PC-3, DU-145, iSLK); test: MTS cell viability assay, summary over the cancer cell line panel; format: cell-based; details: Homo sapiens; range over CCRF-CEM, MDA-MB-231, PC3, DU-145; read-out: IC50 against all the cancer cell lines (range)
Description: as §3, §2

[11] = biological target: phosphatidylinositol 3-kinase (PI3K); set-up: method as in PMID 8106507; details: cellular; cited from earlier work
[12] = Homo sapiens, HEK293, normal HEK-293 cells
[13] = 72 h, read-out: Inhibition of Cancer Cell Lines MDA-MB-231
[14] = Homo sapiens, CCRF-CEM, 72 h, read-out: Inhibition of Cancer Cell Lines CCRF-CEM

Compound	IC50 [3] [µM]	IC50 [4] [µM]	IC50 [6] [µM]	IC50 ([8]; Homo sapiens, CCRF-CEM) [µM]	IC50 [10] [µM]	IC50 [9, 12] [µM]	inhibition at 25 µM ([9]; Homo sapiens) [%]	IC50 ([9]; normal HEK-293 cells) [µM]	inhibition at 25 µM ([3]; 72 h) [%]	inhibition at 25 µM ([4]; 72 h) [%]	inhibition at 25 µM [5] [%]	inhibition at 25 µM [6, 13] [%]	inhibition at 25 µM [7] [%]	inhibition at 25 µM [8, 14] [%]	other results
COc1cccc2c1C(=O)c1c(O)c3c(c(O)c1C2=O)C[C@@](O)(C(=O)CO)C[C@@H]3O[C@H]1C[C@H](N)[C@H](O)[C@H](C)O1 [doxorubicin, reference compound]															inhibition at 5 µM [1]: 43%; inhibition at 5 µM ([2]; Dox at 5 μM): 74%; inhibition at 5 µM ([3]; Dox at 5 μM, 72 h): 54%; inhibition at 5 µM ([4]; Dox at 5 μM, 72 h): 57%; Inhibition of Cancer Cell Lines iSLK ([5]; Dox at 5 μM): NIL; inhibition at 5 µM ([6]; Dox at 5 μM, 72 h, read-out: Inhibition of Cancer Cell Lines MDA-MB-231): 73%; inhibition at 5 µM ([7]; SK-OV-3, Dox at 5 μM): 62%; inhibition at 5 µM ([8]; Homo sapiens, CCRF-CEM, Dox at 5 μM, 72 h, read-out: Inhibition of Cancer Cell Lines CCRF-CEM): 82%; Early Apoptosis (MDA-MB-231 cells): 61.15%; Late Apoptosis (MDA-MB-231 cells): 28.29%
COc1cccc2occ(COC(=O)c3c(C)noc3C)c(=O)c12 [Compound 5b, (5-Methoxy-4-oxo-4H-1-benzopyran-3-yl)methyl 3,5-dimethylisoxazole-4-carboxylate]	14.8	51.1	22.2	36.5	14.8 to 51.1	102	34	192	75	50	23	60	42	83	
O=c1cc(N2CCOCC2)oc2c(-c3ccccc3)cccc12 [LY294002, 2-(4-Morpholinyl)-8-Phenyl-4H-1-Benzopyran-4-One]															IC50 [11]: ~1.4 µM

More lines, main results first:

IC50 [3] [µM]	IC50 [4] [µM]	IC50 [6] [µM]	IC50 ([8]; Homo sapiens, CCRF-CEM) [µM]	IC50 [10] [µM]	Compound	IC50 [9, 12] [µM]	inhibition at 25 µM ([9]; Homo sapiens) [%]	IC50 ([9]; normal HEK-293 cells) [µM]	inhibition at 25 µM ([3]; 72 h) [%]	inhibition at 25 µM ([4]; 72 h) [%]	inhibition at 25 µM [5] [%]	inhibition at 25 µM [6, 13] [%]	inhibition at 25 µM [7] [%]	inhibition at 25 µM [8, 14] [%]	other results
12.7	14.6	5.26	16.2	5.2 to 16.1	COc1ccc2c(=O)c(COC(=O)c3c(C)noc3C)coc2c1 [Compound 5d, (7-Methoxy-4-oxo-4H-1-benzopyran-3-yl)methyl 3,5-dimethylisoxazole-4-carboxylate]	192	40	102	75	79	42	76	48	82	inhibition at 25 µM ([2]; conjugates at 25 μM): 18%
12.9	12.2	11	3.31	3.3 to 12.9	COc1ccc2occ(COC(=O)c3c(C)noc3C)c(=O)c2c1 [Compound 5c, (6-Methoxy-4-oxo-4H-1-benzopyran-3-yl)methyl 3,5-dimethylisoxazole-4-carboxylate]	222	38		74	81	31	70	45	83	fold potency for CCRF-CEM cell lines ([8]; compared to 5a, 5b, and 5d, from IC50): 3–12 fold
